# Columns and labels:
# [1] = tested on: cells from the thymus of normal BALB/c mice; experiment: comitogen-induced thymocyte proliferation procedure (LAF); type: cell-based; details: PHA and IL-1, 72 hours, tritiated thymidine last six hours
# Procedure: Immunosuppresive activity of the compounds of the present invention was evaluated in an in vitro standard pharmacological test procedure to measure lymphocyte proliferation (LAF).
# Briefly, cells from the thymus of normal BALB/c mice were cultured for 72 hours with PHA and IL-1 and pulsed with tritiated thymidine during the last six hours. […] Cells are harvested and incorporated; radioactivity is determined. Inhibition of lymphoproliferation is assessed in percent change in counts per minute from non-drug treated controls. The results are expressed by the following ratio: [formula]
# [2] = tested on: adjuvant arthritis model; details: model for rheumatoid arthritis; cited from earlier work
# [3] = tested on: experimental allergic encephalomyelitis model; details: model for multiple sclerosis; cited from earlier work
# [4] = tested on: Candida albicans; details: both in vitro and in vivo; cited from earlier work
# [5] = tested on: IGE-like antibodies; details: in vivo; cited from earlier work
# [6] = tested on: transplant rejection; details: in vivo; cited from earlier work
# [7] = cited from earlier work
Structure (SMILES),R/*A at 10 nM (relative potency of analogs/rapamycin) [1],R/*A at 100 nM (relative potency of analogs/rapamycin) [1],also measured
"CO[C@H]1C[C@@H]2CC[C@@H](C)[C@@](O)(O2)C(=O)C(=O)N2CCCC[C@H]2C(=O)O[C@H]([C@H](C)C[C@@H]2CC[C@@H](OC(=O)CCCCC(=O)O[C@@H]3CC[C@@H](C[C@@H](C)[C@@H]4CC(=O)[C@H](C)/C=C(\C)[C@@H](O)[C@@H](OC)C(=O)[C@H](C)C[C@H](C)/C=C/C=C/C=C(\C)[C@@H](OC)C[C@@H]5CC[C@@H](C)[C@@](O)(O5)C(=O)C(=O)N5CCCC[C@H]5C(=O)O4)C[C@H]3OC)[C@H](OC)C2)CC(=O)[C@H](C)/C=C(\C)[C@@H](O)[C@@H](OC)C(=O)[C@H](C)C[C@H](C)/C=C/C=C/C=C/1C [Example 1, Rapamycin-42,42'-diester with hexanedioic acid]",0.95,1.0,–
"CO[C@H]1C[C@@H]2CC[C@@H](C)[C@@](O)(O2)C(=O)C(=O)N2CCCC[C@H]2C(=O)O[C@H]([C@H](C)C[C@@H]2CC[C@@H](OC(=O)CCCCCCCC(=O)O[C@@H]3CC[C@@H](C[C@@H](C)[C@@H]4CC(=O)[C@H](C)/C=C(\C)[C@@H](O)[C@@H](OC)C(=O)[C@H](C)C[C@H](C)/C=C/C=C/C=C(\C)[C@@H](OC)C[C@@H]5CC[C@@H](C)[C@@](O)(O5)C(=O)C(=O)N5CCCC[C@H]5C(=O)O4)C[C@H]3OC)[C@H](OC)C2)CC(=O)[C@H](C)/C=C(\C)[C@@H](O)[C@@H](OC)C(=O)[C@H](C)C[C@H](C)/C=C/C=C/C=C/1C [Example 4, Rapamycin-42,42'-diacid with nonanedioic acid]",1.10,1.0,–
"CO[C@H]1C[C@@H]2CC[C@@H](C)[C@@](O)(O2)C(=O)C(=O)N2CCCC[C@H]2C(=O)O[C@H]([C@H](C)C[C@@H]2CC[C@@H](OC(=O)CCCCCCC(=O)O[C@@H]3CC[C@@H](C[C@@H](C)[C@@H]4CC(=O)[C@H](C)/C=C(\C)[C@@H](O)[C@@H](OC)C(=O)[C@H](C)C[C@H](C)/C=C/C=C/C=C(\C)[C@@H](OC)C[C@@H]5CC[C@@H](C)[C@@](O)(O5)C(=O)C(=O)N5CCCC[C@H]5C(=O)O4)C[C@H]3OC)[C@H](OC)C2)CC(=O)[C@H](C)/C=C(\C)[C@@H](O)[C@@H](OC)C(=O)[C@H](C)C[C@H](C)/C=C/C=C/C=C/1C [Example 3, Rapamycin-42,42'-diester with octanedioic acid]",0.59,1.0,–
"CO[C@H]1C[C@@H]2CC[C@@H](C)[C@@](O)(O2)C(=O)C(=O)N2CCCC[C@H]2C(=O)O[C@H]([C@H](C)C[C@@H]2CC[C@@H](OC(=O)CCCCCC(=O)O[C@@H]3CC[C@@H](C[C@@H](C)[C@@H]4CC(=O)[C@H](C)/C=C(\C)[C@@H](O)[C@@H](OC)C(=O)[C@H](C)C[C@H](C)/C=C/C=C/C=C(\C)[C@@H](OC)C[C@@H]5CC[C@@H](C)[C@@](O)(O5)C(=O)C(=O)N5CCCC[C@H]5C(=O)O4)C[C@H]3OC)[C@H](OC)C2)CC(=O)[C@H](C)/C=C(\C)[C@@H](O)[C@@H](OC)C(=O)[C@H](C)C[C@H](C)/C=C/C=C/C=C/1C [Example 2, Rapamycin-42,42'-diester with heptanedioic acid]",0.28,0.96,–
CO[C@H]1C[C@@H]2CC[C@@H](C)[C@@](O)(O2)C(=O)C(=O)N2CCCC[C@H]2C(=O)O[C@H]([C@H](C)C[C@@H]2CC[C@@H](O)[C@H](OC)C2)CC(=O)[C@H](C)/C=C(\C)[C@@H](O)[C@@H](OC)C(=O)[C@H](C)C[C@H](C)/C=C/C=C/C=C/1C [Rapamycin],–,–,effect in the adjuvant arthritis model [2]: effective; effect in the experimental allergic encephalomyelitis model [3]: effective; antifungal activity [4]: antifungal activity; inhibition of the formation of IGE-like antibodies [5]: effectively inhibited; inhibiting transplant rejection [6]: effective in inhibiting transplant rejection; antitumor activity ([7]; alone): antitumor activity; antitumor activity in combination ([7]; in combination with picibanil): antitumor activity

# From patent US5120727A, “Rapamycin dimers” (American Home Products Corporation, priority 1991, dated 1992)
